Assay results as given in patent US5110976A, “Insecticidal composition comprising more than one active ingredient” (priority 1985, dated 1992).

Experiments:
Musca domestica = assay: Topical LD50 (Table 3); format: in vivo, house fly (Musca domestica), 3-5 days' old females
Protocol: (§1) In Table 3 the LD50 values of the Ig and Ii isomers and those of the Ib isomer-pair are disclosed. The data are topically measured.
(§2) The active ingredients are dissolved in 2-ethoxyethanol (cellosolve) and 0.3 μl droplets of the solutions are applied onto the dorsal cuticulum of 3-5 days' old female house flies. 10 animals are used and 2 parallels are carried out for each dose. The tests are carried out for 5 dose levels between activity limits of 0% and 100%. After treatment the flies are placed into glass vials. Mortality is determined after 24 hours. Data are transformed to log10 dosage and probit mortality. LD50 and confidence interval values are calculated by linear regression analysis of the log-probit data. The expected values required for the calculation of synergism are obtained by means of harmonic average. The synergistic factor is the quotient of the expected and measured values.

A. matricariae = assay: Direct contact test of pupae (Table 5); format: in vivo
Protocol: Mature pupae of A. matricariae on paprika leaves in Petri dishes are exposed to a direct spray of the active ingredients.
Two or three days before emergence paprika leaves with parasitized pupae are used. The leaves are laid on filter paper in a plastic Petri dish The filter paper is moistened.
Application of treatment: See Example 23.
The pieces of leaf are transferred after treatment to clean Petri dish bottoms The trays are stored in a clinic chamber at 20° C. temperature, 70% relative humidity and a light-dark cycle of […]. Surviving pupae hatch after 2-3 days. The numbers of hatched and dead pupae are counted.

Repellant effect = conditions: in vivo
T. confusum = assay: Topical LD50 (Table 3); format: in vivo, 1-2 weeks' old imagos
Protocol: as §1, §2
The active ingredients are dissolved in 2-ethoxyethanol and 0.3 μl droplets of the solutions are applied onto the abdominal side of 1-2 weeks' old imagos. Treatment is carried out with 2 parallels and 20 animals for each dose by using 5 dose levels in the range between activity limits of 0% and 100%. Evaluation and determination of LD50 values and synergistic factors are carried out as described in Example 21.

[1] = harmonic average of the single isomers
[2] = quotient of expected and measured LD50

CC1(C)[C@H](C=C(Cl)Cl)[C@H]1C(=O)O[C@H](C#N)c1cccc(Oc2ccccc2)c1 (relative stereo) [Ib]
LD50 expected (Musca domestica; [1]): 24.5 ng/insect | synerg. factor (Musca domestica; [2]): 1.92 | LD50 measured (Musca domestica; topical, dorsal cuticulum, 24 hours): 12.8 ng/insect | Mortality % (A. matricariae; 1 ppm): 0% | Mortality % (A. matricariae; 5 ppm): 0% | Mortality % (A. matricariae; 10 ppm): 0% | Mortality % (A. matricariae; 30 ppm): 61.0% | repellant effect (Repellant effect): outstandingly good | LD50 expected (T. confusum; [1]): 139.3 ng/insect | synerg. factor (T. confusum; [2]): 2.68 | LD50 measured (T. confusum; topical, abdominal side): 51.9 ng/insect
